Measured values reported in EP4121415B1, “INHIBITORS OF CYTOKININ OXIDASE DERIVED FROM 1-[2-(HYDROXYALKYL)PHENYL]-3-YLUREA, USE THEREOF AND PREPARATIONS CONTAINING THESE DERIVATIVES” (Univerzita Palackého v Olomouci, priority 2020, dated 2021).
pIC50: −log10 of the molar value. Read-outs that look alike come from different tables or passages of the source.

Assays:
[1] = tested on: segments of wheat leaves (Triticum aestivum cv. Hereward); experiment: wheat leaf senescence assay performed in the dark (chlorophyll retention in detached leaf segments); format: in vivo; details: 10 micromolar, 96 hours in the dark at 25 °C, compared to yellow control (0,2% DMSO); for activation at 10 µM: Triticum aestivum, foliar, read-out: (% of chlorophyll above control)
Procedure: Seeds of winter wheat (Triticum aestivum cv. Hereward) was washed under running water for 4 hours and then sown in vermiculite saturated with Knop's nutrient solution. The trays with seeds were placed in an air-conditioned growth chamber with a 16/8 hour light regime (light intensity 50 µmol.m^-2.s^-1) and a temperature of 15 °C. After 7 days, the seedlings had developed the first […] and the second leaf began to grow. Top sections approximately 4 cm long were excised from the first leaves of 4 plants and their combined weight was adjusted to exactly 100 mg. The basal ends of these 4 leaf segments were placed in the wells of microtiter polystyrene plates containing solution (150 µL) of the tested derivative. The plates were placed in a plastic box with filter paper, which was saturated with water (to maintain the maximum humidity). After 96 hours of incubation in the dark at 25 °C, the leaf segments were removed and the chlorophyll was extracted to 5 mL of 80% ethanol by heating the leaf segments in ethanol at 80 °C for 40 min. The sample volume was then adjusted to 5 mL by adding 80% ethanol. The absorbance of the extracts was measured at 665 nm. Chlorophyll extracts from leaf segments incubated in deionized water (so-called yellow control) were also measured as controls. Freshly cut leaves (100 mg) were used as a green control, from which chlorophyll was extracted and measured in the same manner. The calculated values are the average of 5 replicates and the whole experiment was repeated two times. The tested compounds were dissolved in dimethyl sulfoxide (DMSO) to a concentration 10^-2 M. This stock solution was further diluted with water to a concentration of 10 micromolar. At this concentration, the substances were tested.

[2] = target: T1, maize enzyme cytokinin oxidase/dehydrogenase 1 (ZmCKX1) (Zea mays, UniProt Q9T0N8); experiment: ZmCKX1 inhibition, PMS/MTT assay; format: biochemical; details: for IC50: 10 µM N6-isopentenyladenine (iP) as substrate, pH 7.4, 30 min at 37 °C, average of at least two measurements, read-out: IC50 (µM) ZmCKX1
T1 construct: made in house; host or cells: Yarrowia lipolytica
T1 sequence (Q9T0N8 19-534): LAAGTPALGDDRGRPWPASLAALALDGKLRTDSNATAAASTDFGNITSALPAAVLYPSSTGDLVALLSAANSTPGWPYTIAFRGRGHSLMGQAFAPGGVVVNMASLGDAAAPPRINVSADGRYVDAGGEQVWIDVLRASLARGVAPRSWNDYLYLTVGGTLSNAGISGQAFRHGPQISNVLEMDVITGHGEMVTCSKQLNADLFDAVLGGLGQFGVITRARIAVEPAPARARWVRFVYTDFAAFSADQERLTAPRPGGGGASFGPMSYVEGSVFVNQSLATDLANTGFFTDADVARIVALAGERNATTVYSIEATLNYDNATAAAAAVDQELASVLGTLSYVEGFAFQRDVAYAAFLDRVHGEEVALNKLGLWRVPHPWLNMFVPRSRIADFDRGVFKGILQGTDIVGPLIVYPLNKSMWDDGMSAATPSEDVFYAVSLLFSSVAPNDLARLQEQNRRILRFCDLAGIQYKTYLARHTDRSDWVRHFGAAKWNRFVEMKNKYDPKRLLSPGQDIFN
Procedure: The IC50 (concentration of a substance that causes 50% inhibition of the enzyme activity) was measured by PMS/MTT assay [phenazine methosulphate/3-(4,5-dimethylthiazol-2-yl)-2,5-diphenyltetrazolium bromide]. The assay was performed in 96-well microtiter plates. Each well contained a reaction mixture with a final concentration of: 0.1 M KH2PO4, pH 7.4, 1 mM MTT, 0.2 mM PMS, tested substance in a concentration range of 0.1 nM - 1 µM and 10 µM N^6-isopentenyladenine (iP) as a substrate. To this reaction mixture 100 µL of medium containing the active enzyme ZmCKX1 was added. The enzyme was produced by the yeast Yarrowia lipolytica and isolated according to the protocol (Kopečný D. et al., 2005, […] 87:1011-1022). The plates were incubated for 30 min at 37 °C and the enzymatic reaction was stopped by the addition of 25 µL of 35% acetic acid. Then, the absorbance at 578 nm was measured on a spectrophotometer, and the absorbance of the sample without the substrate was substracted as a reference value. The IC50 value was determined from the concentration-dependent curves in GraphPad Prism software. The values shown in Table 1 are the average of at least two measurements each performed in three repetitions. […] This also applies to 3,5-DCl-Ph-U derivatives.

| IC50 [2] [µM] | Compound | activation at 10 µM [1] [%] | pIC50 [2] | (% of chlorophyll above control) [1] [%] |
| --- | --- | --- | --- | --- |
| 0.27 | O=C(Nc1ccnc(F)c1)Nc1cc(Cl)ccc1CO [Compound 2, 1-(5-chloro-2-hydroxymethylphenyl)-3-(2-fluoropyridin-4-yl)urea] | 23 |  |  |
| 0.1 | O=C(Nc1cc(Cl)nc(Cl)c1)Nc1cc(Cl)ccc1CO [Compound 6, 1-(5-chloro-2-hydroxymethylphenyl)-3-(2,6-dichloropyridin-4-yl)urea] | 29 |  |  |
| 0.095 | O=C(Nc1cc(F)nc(F)c1)Nc1cc(Cl)ccc1CCO [Compound 11, 1-[5-chloro-2-(2-hydroxyethyl)phenyl]-3-(2,6-difluoropyridin-4-yl)urea] | 31 |  |  |
| 0.081 | COc1cc(NC(=O)Nc2cc(Cl)cc(Cl)c2CCO)ccn1 [Compound 16, 1-[3,5-dichloro-2-(2-hydroxyethyl)phenyl]-3-(2-methoxypyridin-4-yl)urea] | 35 |  |  |
| 0.024 | COc1cc(NCCN)cc(NC(=O)Nc2cc(Cl)ccc2CO)c1 [Compound 25, 1-(5-chloro-2-hydroxymethylphenyl)-3-[3-(2-aminoethylamino)-5-methoxyphenyl]urea] | 45 |  |  |
| 0.27 | COc1cccc(NC(=O)Nc2ccccc2CCO)c1 [Compound 50, 1-[2-(2-hydroxyethyl)phenyl]-3-(3-methoxyphenyl)urea] |  |  |  |
| 0.28 | COc1cc(F)cc(NC(=O)Nc2ccccc2CCO)c1 [Compound 54, 1-(3-fluoro-5-methoxyphenyl)-3-[2-(2-hydroxyethyl)phenyl]urea] |  |  |  |
| 0.18 | COc1cc(Cl)cc(NC(=O)Nc2ccccc2CCO)c1 [Compound 55, 1-(3-Chloro-5-methoxyphenyl)-3-[2-(2-hydroxyethyl)phenyl]urea] |  |  |  |
| 0.13 | COc1cc(NCCN)cc(NC(=O)Nc2ccccc2CCO)c1 [Compound 58] |  |  |  |
| 0.022 | NCCNc1cc(NC(=O)Nc2ccccc2CCO)cc(OC(F)(F)F)c1 [Compound 67] |  |  |  |

Second part, the compound before the results:

| Compound | IC50 [2] [µM] | activation at 10 µM [1] [%] | pIC50 [2] | (% of chlorophyll above control) [1] [%] |
| --- | --- | --- | --- | --- |
| O=C(Nc1ccccc1)Nc1ccnc(Cl)c1 [CPPU, 1-(2-chloropyridin-4-yl)-3phenylurea, reference compound] |  | 12 | 4.69 |  |
| COc1cc(NC(=O)Nc2cc(Br)ccc2CO)ccn1 [Compound 8, 1-(5-bromo-2-hydroxy-methylphenyl)-3-(2-methoxypyridin-4-yl)urea] |  |  | 6.89 | 25 |
| COc1cc(Br)cc(NC(=O)Nc2ccccc2CO)c1 [Compound 22, 1-(3-bromo-5-methoxyphenyl)-3-(2-hydroxymethylphenyl)urea] |  |  | 6.59 | 25 |
| CSc1cccc(NC(=O)Nc2cc(Br)ccc2CO)c1 [Compound 27, 1-(5-bromo-2-hydroxy-methylphenyl)-3-(3-methylsulphanylphenyl)urea] |  |  | 6.77 | 26 |
| O=C(Nc1cccc(OC(F)(F)F)c1)Nc1cc(Br)ccc1CO [Compound 34, 1-(5-Bromo-2-hydroxymethylphenyl)-3-(3-trifluoromethoxyphenyl)urea] |  |  | 7.00 | 32 |
| O=C(Nc1cc(Cl)cc(Cl)c1)Nc1cc(Cl)cc(Cl)c1CCO [Compound 49, 1-[3,5-Dichloro-2-(2-hydroxyethyl)phenyl]-3-(3,5-dichlorophenyl)urea] | 0.01 |  |  |  |
| COc1cc(Br)cc(NC(=O)Nc2ccccc2CCO)c1 [Compound 56, 1-(3-bromo-5-methoxyphenyl)-3-[2-(2-hydroxyethyl)phenyl]urea] |  |  | 6.85 |  |
| COc1cc(NCCO)cc(NC(=O)Nc2ccccc2CCO)c1 [Compound 57, 1-[3-(2-hydroxyethylamino)-5-methoxyphenyl]-3-[2-(2-hydroxyethyl)phenyl]urea] | 0.16 |  |  |  |
| O=C(Nc1cccc(OC(F)(F)F)c1)Nc1cc(F)ccc1CCO [Compound 63, 1-[5-fluoro-2-(2-hydroxyethyl)phenyl]-3-(3-trifluoromethoxyphenyl)urea] | 0.036 |  |  |  |
